Data reported in ChEMBL document CHEMBL3112480, “γ-Alkylidene-γ-lactones and isobutylpyrrol-2(5H)-ones analogues to rubrolides as inhibitors of biofilm formation by gram-positive and gram-negative bacteria” (Bioorg Med Chem Lett, 2014).
In brackets after ≈: the same amount, converted by molar mass. Each block holds one molecule with its values, some of them ahead of it.

How the values were obtained:
[1] = test system: Pseudomonas aeruginosa; experiment: Antibacterial activity against Pseudomonas aeruginosa ATCC 27853 assessed as inhibition of biofilm formation after 20 hrs by crystal-violet staining method; format: functional, organism-based; details: for IC50: ATCC 27853, 20 h
[2] = test system: Staphylococcus epidermidis; experiment: Antibacterial activity against Staphylococcus epidermidis ATCC 35547 assessed as effect on planktonic growth at 1.37 ug/ml after 20 hrs relative to control; format: functional
[3] = test system: Staphylococcus epidermidis; experiment: Antibacterial activity against Staphylococcus epidermidis ATCC 35547 assessed as inhibition of biofilm formation after 20 hrs by crystal-violet staining method; format: functional, organism-based; details: for IC50: ATCC 35547, 20 h
[4] = test system: Pseudomonas aeruginosa; experiment: Antibacterial activity against Pseudomonas aeruginosa ATCC 27853 assessed as effect on planktonic growth at 43.8 ug/ml after 20 hrs relative to control; format: functional
[5] = test system: Staphylococcus epidermidis; experiment: Antibacterial activity against Staphylococcus epidermidis ATCC 35547 assessed as effect on planktonic growth at 21.9 ug/ml after 20 hrs relative to control; format: functional
[6] = test system: Streptococcus mutans; experiment: Antibacterial activity against Streptococcus mutans ATCC 25175 assessed as effect on planktonic growth at 2.73 ug/ml after 20 hrs relative to control; format: functional
[7] = test system: Staphylococcus epidermidis; experiment: Antibacterial activity against Staphylococcus epidermidis ATCC 35547 assessed as effect on planktonic growth at 0.68 ug/ml after 20 hrs relative to control; format: functional
[8] = test system: Pseudomonas aeruginosa; experiment: Antibacterial activity against Pseudomonas aeruginosa ATCC 27853 assessed as effect on planktonic growth at 0.34 ug/ml after 20 hrs relative to control; format: functional
[9] = test system: Pseudomonas aeruginosa; experiment: Antibacterial activity against Pseudomonas aeruginosa ATCC 27853 assessed as effect on planktonic growth at 0.17 ug/ml after 20 hrs relative to control; format: functional
[10] = test system: Streptococcus mutans; experiment: Antibacterial activity against Streptococcus mutans ATCC 25175 assessed as effect on planktonic growth at 43.8 ug/ml after 20 hrs relative to control; format: functional
[11] = test system: Pseudomonas aeruginosa; experiment: Antibacterial activity against Pseudomonas aeruginosa ATCC 27853 assessed as effect on planktonic growth at 0.68 ug/ml after 20 hrs relative to control; format: functional
[12] = test system: Pseudomonas aeruginosa; experiment: Antibacterial activity against Pseudomonas aeruginosa ATCC 27853 assessed as effect on planktonic growth at 87.5 ug/ml after 20 hrs relative to control; format: functional
[13] = test system: Staphylococcus aureus; experiment: Antibacterial activity against Staphylococcus aureus ATCC 25923 assessed as effect on planktonic growth at 10.9 ug/ml after 20 hrs relative to control; format: functional
[14] = test system: Streptococcus mutans; experiment: Antibacterial activity against Streptococcus mutans ATCC 25175 assessed as effect on planktonic growth at 0.34 ug/ml after 20 hrs relative to control; format: functional
[15] = test system: Streptococcus mutans; experiment: Antibacterial activity against Streptococcus mutans ATCC 25175 assessed as effect on planktonic growth at 1.37 ug/ml after 20 hrs relative to control; format: functional
[16] = test system: Staphylococcus epidermidis; experiment: Antibacterial activity against Staphylococcus epidermidis ATCC 35547 assessed as effect on planktonic growth at 0.34 ug/ml after 20 hrs relative to control; format: functional
[17] = test system: Staphylococcus aureus; experiment: Antibacterial activity against Staphylococcus aureus ATCC 25923 assessed as effect on planktonic growth at 1.37 ug/ml after 20 hrs relative to control; format: functional
[18] = test system: Streptococcus mutans; experiment: Antibacterial activity against Streptococcus mutans ATCC 25175 assessed as effect on planktonic growth at 21.9 ug/ml after 20 hrs relative to control; format: functional
[19] = test system: Staphylococcus epidermidis; experiment: Antibacterial activity against Staphylococcus epidermidis ATCC 35547 assessed as effect on planktonic growth at 2.73 ug/ml after 20 hrs relative to control; format: functional
[20] = test system: Staphylococcus epidermidis; experiment: Antibacterial activity against Staphylococcus epidermidis ATCC 35547 assessed as effect on planktonic growth at 43.8 ug/ml after 20 hrs relative to control; format: functional
[21] = test system: Pseudomonas aeruginosa; experiment: Antibacterial activity against Pseudomonas aeruginosa ATCC 27853 assessed as effect on planktonic growth at 21.9 ug/ml after 20 hrs relative to control; format: functional
[22] = test system: Staphylococcus aureus; experiment: Antibacterial activity against Staphylococcus aureus ATCC 25923 assessed as effect on planktonic growth at 0.34 ug/ml after 20 hrs relative to control; format: functional
[23] = test system: Staphylococcus aureus; experiment: Antibacterial activity against Staphylococcus aureus ATCC 25923 assessed as effect on planktonic growth at 43.8 ug/ml after 20 hrs relative to control; format: functional
[24] = test system: Pseudomonas aeruginosa; experiment: Antibacterial activity against Pseudomonas aeruginosa ATCC 27853 assessed as effect on planktonic growth at 10.9 ug/ml after 20 hrs relative to control; format: functional
[25] = test system: Pseudomonas aeruginosa; experiment: Antibacterial activity against Pseudomonas aeruginosa ATCC 27853 assessed as effect on planktonic growth at 5.5 ug/ml after 20 hrs relative to control; format: functional
[26] = test system: Streptococcus mutans; experiment: Antibacterial activity against Streptococcus mutans ATCC 25175 assessed as effect on planktonic growth at 87.5 ug/ml after 20 hrs relative to control; format: functional
[27] = test system: Staphylococcus aureus; experiment: Antibacterial activity against Staphylococcus aureus ATCC 25923 assessed as effect on planktonic growth at 0.17 ug/ml after 20 hrs relative to control; format: functional
[28] = test system: Streptococcus mutans; experiment: Antibacterial activity against Streptococcus mutans ATCC 25175 assessed as effect on planktonic growth at 10.9 ug/ml after 20 hrs relative to control; format: functional
[29] = test system: Staphylococcus epidermidis; experiment: Antibacterial activity against Staphylococcus epidermidis ATCC 35547 assessed as effect on planktonic growth at 10.9 ug/ml after 20 hrs relative to control; format: functional
[30] = test system: Pseudomonas aeruginosa; experiment: Antibacterial activity against Pseudomonas aeruginosa ATCC 27853 assessed as effect on planktonic growth at 1.37 ug/ml after 20 hrs relative to control; format: functional
[31] = test system: Staphylococcus aureus; experiment: Antibacterial activity against Staphylococcus aureus ATCC 25923 assessed as effect on planktonic growth at 2.73 ug/ml after 20 hrs relative to control; format: functional
[32] = test system: Staphylococcus epidermidis; experiment: Antibacterial activity against Staphylococcus epidermidis ATCC 35547 assessed as effect on planktonic growth at 87.5 ug/ml after 20 hrs relative to control; format: functional
[33] = test system: Staphylococcus aureus; experiment: Antibacterial activity against Staphylococcus aureus ATCC 25923 assessed as effect on planktonic growth at 21.9 ug/ml after 20 hrs relative to control; format: functional
[34] = test system: Staphylococcus aureus; experiment: Antibacterial activity against Staphylococcus aureus ATCC 25923 assessed as effect on planktonic growth at 5.5 ug/ml after 20 hrs relative to control; format: functional
[35] = test system: Streptococcus mutans; experiment: Antibacterial activity against Streptococcus mutans ATCC 25175 assessed as effect on planktonic growth at 5.5 ug/ml after 20 hrs relative to control; format: functional
[36] = test system: Pseudomonas aeruginosa; experiment: Antibacterial activity against Pseudomonas aeruginosa ATCC 27853 assessed as effect on planktonic growth at 2.73 ug/ml after 20 hrs relative to control; format: functional
[37] = test system: Staphylococcus aureus; experiment: Antibacterial activity against Staphylococcus aureus ATCC 25923 assessed as effect on planktonic growth at 0.68 ug/ml after 20 hrs relative to control; format: functional
[38] = test system: Staphylococcus epidermidis; experiment: Antibacterial activity against Staphylococcus epidermidis ATCC 35547 assessed as effect on planktonic growth at 0.17 ug/ml after 20 hrs relative to control; format: functional
[39] = test system: Staphylococcus epidermidis; experiment: Antibacterial activity against Staphylococcus epidermidis ATCC 35547 assessed as effect on planktonic growth at 5.5 ug/ml after 20 hrs relative to control; format: functional
[40] = test system: Staphylococcus aureus; experiment: Antibacterial activity against Staphylococcus aureus ATCC 25923 assessed as effect on planktonic growth at 87.5 ug/ml after 20 hrs relative to control; format: functional
[41] = test system: Streptococcus mutans; experiment: Antibacterial activity against Streptococcus mutans ATCC 25175 assessed as effect on planktonic growth at 0.68 ug/ml after 20 hrs relative to control; format: functional
[42] = test system: Streptococcus mutans; experiment: Antibacterial activity against Streptococcus mutans ATCC 25175 assessed as effect on planktonic growth at 0.17 ug/ml after 20 hrs relative to control; format: functional

IC50 [1]: > 87.5 µg/mL | IC50 [3]: 41.3 µg/mL (≈ 80.2 µM)
SMILES: COc1ccc(Br)cc1C1=C(Br)C(=O)O/C1=C\c1ccc(Br)cc1
inhibition [1]: Dose-dependent effect | Activity [2]: -2.2% | inhibition [3]: Dose-dependent effect | Activity [4]: -12.1% | Activity [5]: 3.9% | Activity [6]: 15% | Activity [7]: -0.2% | Activity [8]: -1.9% | Activity [9]: -1.8% | Activity [10]: -11.3% | Activity [11]: -1.8% | Activity [12]: -12.9% | Activity [13]: 15.8% | Activity [14]: 3.8% | Activity [15]: 12.3% | Activity [16]: 0.6% | Activity [17]: 6.7% | Activity [18]: 4% | Activity [19]: 4.5% | Activity [20]: 22.1% | Activity [21]: -15.1% | Activity [22]: 0.5% | Activity [23]: 13.1% | Activity [24]: -17.6% | Activity [25]: -22% | Activity [26]: -13.5% | Activity [27]: -1.6% | Activity [28]: 7.2% | Activity [29]: -1.5% | Activity [30]: -8.6% | Activity [31]: 5.6% | Activity [32]: 31.9% | Activity [33]: 23.1% | Activity [34]: 8.3% | Activity [35]: 10.3% | Activity [36]: -19.2% | Activity [37]: 0.8% | Activity [38]: 8.1% | Activity [39]: 1% | Activity [40]: 9.4% | Activity [41]: 7% | Activity [42]: 4.5%

IC50 [1]: 1.7 µg/mL (≈ 4.03 µM) | IC50 [3]: > 87.5 µg/mL
SMILES: COc1cccc(/C=C2\OC(=O)C(Br)=C2c2cc(Cl)ccc2OC)c1
inhibition [1]: Dose-dependent effect | Activity [2]: -4.7% | inhibition [3]: Dose-dependent effect | Activity [4]: -8.7% | Activity [5]: -1.3% | Activity [6]: 37.3% | Activity [7]: -1.5% | Activity [8]: 0.5% | Activity [9]: -1.2% | Activity [10]: 22.7% | Activity [11]: 0.7% | Activity [12]: -9.5% | Activity [13]: 43.1% | Activity [14]: 25.7% | Activity [15]: 34.3% | Activity [16]: 0.1% | Activity [17]: 52.1% | Activity [18]: 14% | Activity [19]: -2.4% | Activity [20]: 5.6% | Activity [21]: -11.6% | Activity [22]: 30.5% | Activity [23]: 80.5% | Activity [24]: -14.8% | Activity [25]: -19.4% | Activity [26]: 49% | Activity [27]: 10.3% | Activity [28]: 18.8% | Activity [29]: -5.5% | Activity [30]: -7.3% | Activity [31]: 39.5% | Activity [32]: 10.6% | Activity [33]: 47.2% | Activity [34]: 34.4% | Activity [35]: 19.7% | Activity [36]: -16% | Activity [37]: 47.2% | Activity [38]: 3.7% | Activity [39]: -4.6% | Activity [40]: 134.6% | Activity [41]: 23.9% | Activity [42]: 26.9%
